{"source": "patent US7615642B2", "about": "“Therapeutic compounds” (priority 2006, dated 2009)", "key": {"Human CB1 receptor [1]": {"target": "T1, Human CB1 receptor (Homo sapiens, UniProt P21554)", "T1 construct": "purchased Receptor Biology", "T1 sequence (P21554 whole entry)": "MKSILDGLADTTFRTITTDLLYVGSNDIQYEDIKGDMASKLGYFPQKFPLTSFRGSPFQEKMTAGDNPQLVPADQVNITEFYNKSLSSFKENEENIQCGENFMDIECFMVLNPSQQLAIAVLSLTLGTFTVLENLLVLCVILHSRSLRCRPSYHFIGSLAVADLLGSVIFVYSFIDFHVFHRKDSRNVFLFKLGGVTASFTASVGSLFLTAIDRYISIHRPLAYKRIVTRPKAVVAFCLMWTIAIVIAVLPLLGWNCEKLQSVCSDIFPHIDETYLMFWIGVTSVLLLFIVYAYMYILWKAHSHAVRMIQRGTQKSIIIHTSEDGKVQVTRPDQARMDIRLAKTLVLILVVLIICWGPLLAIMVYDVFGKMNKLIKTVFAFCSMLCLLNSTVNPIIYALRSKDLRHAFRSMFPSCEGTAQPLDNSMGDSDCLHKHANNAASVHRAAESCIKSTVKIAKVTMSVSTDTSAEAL", "assay": "hCB1 GTPγS binding", "format": "biochemical", "details": "human CB1 membranes, GTPg35S binding", "description": "Human CB1 receptor from Receptor Biology (hCB1) or human CB2 receptor membranes (BioSignal) are thawed at 37° C., passed 3 times through a 25-gauge blunt-end needle and diluted in the GTPγS binding buffer (50 mM Hepes, 20 mM NaOH, 100 mM […], 1 mM EDTA, 5 mM MgCl2, pH 7.4, 0.1% BSA). The EC50 and Emax of the compounds of the invention are evaluated from 10-point dose-response curves done in […] with the appropriate amount of membrane protein and 100000-130000 dpm of GTPg^35S per well (0.11-0.14 nM). The basal and maximal stimulated binding is determined in absence and presence of 1 μM (hCB2) or 10 μM (hCB1) Win 55,212-2 respectively. The membranes are pre-incubated for 5 minutes with 56.25 μM (hCB2) or 112.5 μM (hCB1) GDP prior to distribution in plates (15 μM (hCB2) or 30 μM (hCB1) GDP final). The plates are vortexed and incubated for 60 minutes at room temperature, filtered on Unifilters GF/B (presoaked in water) with the Tomtec or Packard harvester using 3 ml of wash buffer (50 mM Tris, 5 mM MgCl2, 50 mM NaCl, pH 7.0). The filters are dried for 1 hour at 55° C. The radioactivity (cpm) is counted in a TopCount (Packard) after adding 65 μl/well of MS-20 scintillation liquid. Antagonist reversal studies are done in the same way except that (a) an agonist dose-response curve is done in the presence of a constant concentration of antagonist, or (b) an antagonist dose-response curve is done in the presence of a constant concentration of agonist."}, "Human CB1 receptor [2]": {"target": "T1, Human CB1 receptor", "assay": "hCB1 receptor binding (3H-CP55,940 displacement)", "description": "Human CB1 receptor from Receptor Biology (hCB1) or human CB2 receptor from BioSignal (hCB2) membranes are thawed at 37° C., passed 3 times through a 25-gauge blunt-end needle, diluted in the cannabinoid binding buffer (50 mM Tris, 2.5 mM EDTA, 5 mM MgCl2, and 0.5 mg/mL BSA fatty acid free, pH 7.4) and aliquots containing the appropriate amount of protein are distributed into 96-well plates. The IC50 of the compounds of the invention at hCB1 and hCB2 are evaluated from 10-point dose-response curves done with ^3H-CP55,940 at 20000 to 25000 dpm per well (0.17-0.21 nM) in a final volume of 300 μl. The total and non-specific binding are determined in the absence and presence of 0.2 μM of HU210 respectively. The plates are vortexed and incubated for 60 minutes at room temperature, filtered through Unifilters GF/B (presoaked in 0.1% polyethyleneimine) with the Tomtec or Packard harvester using 3 mL of wash buffer (50 mM Tris, 5 mM MgCl2, 0.5 mg BSA pH 7.0). The filters are dried for 1 hour at 55° C. The radioactivity (cpm) is counted in a TopCount (Packard) after adding 65 μl/well of MS-20 scintillation liquid.\nBased on the above assays, the dissociation constant (Ki) for a particular compound of the invention towards a particular receptor is determined using the following equation: Ki=IC50/(1+[rad]/Kd),\nWherein IC50 is the concentration of the compound of the invention at which 50% displacement has been observed;\n[rad] is a standard or reference radioactive ligand concentration at that moment; and\nKd is the dissociation constant of the radioactive ligand towards the particular receptor."}}, "data": [{"smiles": "CC(C)(C)c1nc2cc(S(=O)(=O)n3cc(C(=O)NC4CC4)cn3)ccc2n1CC1CCC(F)(F)CC1", "note": "[1-({2-tert-Butyl-1-[(4,4-difluorocyclohexyl)methyl]-1H-benzimidazol-5-yl}sulfonyl)-N-cyclopropyl-1H-pyrazole-4-carboxamide]", "values": [{"measurement": "EC50", "setting": "Human CB1 receptor [1]", "value": 0.00058, "unit": "µM"}, {"measurement": "solubility", "setting": "Solubility", "value": 6.16, "unit": "µM"}, {"measurement": "Ki", "setting": "Human CB1 receptor [2]", "value": 0.00088, "unit": "µM"}]}, {"smiles": "CC(C)NC(=O)c1cnn(S(=O)(=O)c2ccc3c(c2)nc(C(C)(C)C)n3CC2CCC(F)(F)CC2)c1", "note": "[1-({2-tert-Butyl-1-[(4,4-difluorocyclohexyl)methyl]-1H-benzimidazol-5-yl}sulfonyl)-N-isopropyl-1H-pyrazole-4-carboxamide]", "values": [{"measurement": "EC50", "setting": "Human CB1 receptor [1]", "value": 0.00341, "unit": "µM"}, {"measurement": "solubility", "setting": "Solubility", "value": 0.26, "unit": "µM"}, {"measurement": "Ki", "setting": "Human CB1 receptor [2]", "value": 0.00182, "unit": "µM"}]}, {"smiles": "CNC(=O)c1cnn(S(=O)(=O)c2ccc3c(c2)nc(C(C)(C)C)n3CC2CCC(F)(F)CC2)c1", "note": "[1-({2-tert-Butyl-1-[(4,4-difluorocyclohexyl)methyl]-1H-benzimidazol-5-yl}sulfonyl)-N-methyl-1H-pyrazole-4-carboxamide]", "values": [{"measurement": "EC50", "setting": "Human CB1 receptor [1]", "value": 0.00121, "unit": "µM"}, {"measurement": "solubility", "setting": "Solubility", "value": 2.52, "unit": "µM"}, {"measurement": "Ki", "setting": "Human CB1 receptor [2]", "value": 0.00161, "unit": "µM"}]}, {"smiles": "CCNC(=O)c1ccn(S(=O)(=O)c2ccc3c(c2)nc(C(C)(F)F)n3CC2CCOCC2)c1", "note": "[1-{[2-(1,1-Difluoroethyl)-1-(tetrahydro-2H-pyran-4-ylmethyl)-1H-benzimidazol-5-yl]sulfonyl}-N-ethyl-1H-pyrrole-3-carboxamide]", "values": [{"measurement": "solubility", "setting": "Solubility", "value": 7.45, "unit": "µM"}, {"measurement": "Ki", "setting": "Human CB1 receptor [2]", "value": 0.088, "unit": "µM"}]}, {"smiles": "CC(C)(C)c1nc2cc(S(=O)(=O)n3ccc(N)n3)ccc2n1CC1CCOCC1", "note": "[1-{[2-tert-Butyl-1-(tetrahydro-2H-pyran-4-ylmethyl)-1H-benzimidazol-5-yl]sulfonyl}-1H-pyrazol-3-amine]", "values": [{"measurement": "solubility", "setting": "Solubility", "value": 43, "unit": "µM"}, {"measurement": "Ki", "setting": "Human CB1 receptor [2]", "value": 0.252, "unit": "µM"}]}, {"smiles": "CC(C)(C)c1nc2cc(S(=O)(=O)n3ccc(C(=O)NC4CC4)c3)ccc2n1CC1CCOCC1", "note": "[1-{[2-tert-Butyl-1-(tetrahydro-2H-pyran-4-ylmethyl)-1H-benzimidazol-5-yl]sulfonyl}-N-cyclopropyl-1H-pyrrole-3-carboxamide]", "values": [{"measurement": "EC50", "setting": "Human CB1 receptor [1]", "value": 0.0105, "unit": "µM"}, {"measurement": "solubility", "setting": "Solubility", "value": 5.64, "unit": "µM"}, {"measurement": "Ki", "setting": "Human CB1 receptor [2]", "value": 0.00568, "unit": "µM"}]}, {"smiles": "CCNC(=O)c1cnn(S(=O)(=O)c2ccc3c(c2)nc(C(C)(C)C)n3CC2CCOCC2)c1", "note": "[1-{[2-tert-Butyl-1-(tetrahydro-2H-pyran-4-ylmethyl)-1H-benzimidazol-5-yl]sulfonyl}-N-ethyl-1H-pyrazole-4-carboxamide]", "values": [{"measurement": "EC50", "setting": "Human CB1 receptor [1]", "value": 0.0572, "unit": "µM"}, {"measurement": "solubility", "setting": "Solubility", "value": 337, "unit": "µM"}, {"measurement": "Ki", "setting": "Human CB1 receptor [2]", "value": 0.0146, "unit": "µM"}]}, {"smiles": "CNC(=O)C1CCN(S(=O)(=O)c2ccc3c(c2)nc(C(C)(C)C)n3CC2CCOCC2)C1", "note": "(stereo not drawn) [1-{[2-tert-Butyl-1-(tetrahydro-2H-pyran-4-ylmethyl)-1H-benzimidazol-5-yl]sulfonyl}-N-methylpyrrolidine-3-carboxamide]", "values": [{"measurement": "solubility", "setting": "Solubility", "value": 2600, "unit": "µM"}, {"measurement": "Ki", "setting": "Human CB1 receptor [2]", "value": 0.833, "unit": "µM"}]}, {"smiles": "CCNC(=O)c1ccn(S(=O)(=O)c2ccc3c(c2)nc(C(C)(C)C)n3CC2CCOCC2)c1", "note": "[1-{[2-tert-butyl-1-(tetrahydro-2H-pyran-4-ylmethyl)-1H-benzimidazol-5-yl]sulfonyl}-N-ethyl-1H-pyrrole-3-carboxamide]", "values": [{"measurement": "EC50", "setting": "Human CB1 receptor [1]", "value": 0.0843, "unit": "µM"}, {"measurement": "solubility", "setting": "Solubility", "value": 28, "unit": "µM"}, {"measurement": "Ki", "setting": "Human CB1 receptor [2]", "value": 0.0242, "unit": "µM"}]}, {"smiles": "CC(C)(C)c1nc2cc(S(=O)(=O)N3CCOCC3)ccc2n1CC1CCOCC1", "note": "[2-tert-Butyl-5-(morpholin-4-ylsulfonyl)-1-(tetrahydro-2H-pyran-4-ylmethyl)-1H-benzimidazole]", "values": [{"measurement": "solubility", "setting": "Solubility", "value": 128, "unit": "µM"}, {"measurement": "Ki", "setting": "Human CB1 receptor [2]", "value": 1.53, "unit": "µM"}]}, {"smiles": "CC(C)(C)c1nc2cc(S(=O)(=O)N3CCCC(c4ccccc4)C3)ccc2n1CC1CCOCC1", "note": "(stereo not drawn) [2-tert-Butyl-5-[(3-phenylpiperidin-1-yl)sulfonyl]-1-(tetrahydro-2H-pyran-4-ylmethyl)-1H-benzimidazole]", "values": [{"measurement": "solubility", "setting": "Solubility", "value": 0.79, "unit": "µM"}, {"measurement": "Ki", "setting": "Human CB1 receptor [2]", "value": 0.278, "unit": "µM"}]}, {"smiles": "CC(C)(C)c1nc2cc(S(=O)(=O)N3CCC(c4ccccc4)C3)ccc2n1CC1CCOCC1", "note": "(stereo not drawn) [2-tert-Butyl-5-[(3-phenylpyrrolidin-1-yl)sulfonyl]-1-(tetrahydro-2H-pyran-4-ylmethyl)-1H-benzimidazole]", "values": [{"measurement": "solubility", "setting": "Solubility", "value": 7.29, "unit": "µM"}, {"measurement": "Ki", "setting": "Human CB1 receptor [2]", "value": 0.11, "unit": "µM"}]}, {"smiles": "CC(C)(C)c1nc2cc(S(=O)(=O)N3CCOC(C(=O)NC4CC4)C3)ccc2n1CC1CCC(F)(F)CC1", "note": "(stereo not drawn) [4-({2-tert-Butyl-1-[(4,4-difluorocyclohexyl)methyl]-1H-benzimidazol-5-yl}sulfonyl)-N-cyclopropylmorpholine-2-carboxamide]", "values": [{"measurement": "EC50", "setting": "Human CB1 receptor [1]", "value": 0.0104, "unit": "µM"}, {"measurement": "solubility", "setting": "Solubility", "value": 42.5, "unit": "µM"}, {"measurement": "Ki", "setting": "Human CB1 receptor [2]", "value": 0.0114, "unit": "µM"}]}, {"smiles": "CCNC(=O)[C@@H]1CN(S(=O)(=O)c2ccc3c(c2)nc(C(C)(C)C)n3CC2CCC(F)(F)CC2)CCO1", "note": "[(2S)-4-({2-tert-butyl-1-[(4,4-difluorocyclohexyl)methyl]-1H-benzimidazol-5-yl}sulfonyl)-N-ethylmorpholine-2-carboxamide]", "values": [{"measurement": "EC50", "setting": "Human CB1 receptor [1]", "value": 0.0438, "unit": "µM"}, {"measurement": "solubility", "setting": "Solubility", "value": 43.4, "unit": "µM"}, {"measurement": "Ki", "setting": "Human CB1 receptor [2]", "value": 0.018, "unit": "µM"}]}, {"smiles": "CC(C)(C)c1nc2cc(S(=O)(=O)N3CCC[C@H](C(=O)NC4CC4)C3)ccc2n1CC1CCC(F)(F)CC1", "note": "[(3S)-1-({2-tert-Butyl-1-[(4,4-difluorocyclohexyl)methyl]-1H-benzimidazol-5-yl}sulfonyl)-N-cyclopropylpiperidine-3-carboxamide]", "values": [{"measurement": "EC50", "setting": "Human CB1 receptor [1]", "value": 0.00171, "unit": "µM"}, {"measurement": "solubility", "setting": "Solubility", "value": 29.4, "unit": "µM"}, {"measurement": "Ki", "setting": "Human CB1 receptor [2]", "value": 0.00205, "unit": "µM"}]}, {"smiles": "CCCNC(=O)[C@H]1CCCN(S(=O)(=O)c2ccc3c(c2)nc(C(C)(C)C)n3CC2CCC(F)(F)CC2)C1", "note": "[(3S)-1-({2-tert-Butyl-1-[(4,4-difluorocyclohexyl)methyl]-1H-benzimidazol-5-yl}sulfonyl)-N-propylpiperidine-3-carboxamide]", "values": [{"measurement": "EC50", "setting": "Human CB1 receptor [1]", "value": 0.00169, "unit": "µM"}, {"measurement": "solubility", "setting": "Solubility", "value": 16.8, "unit": "µM"}, {"measurement": "Ki", "setting": "Human CB1 receptor [2]", "value": 0.00203, "unit": "µM"}]}, {"smiles": "CC(F)(F)c1nc2cc(S(=O)(=O)n3ccc(C(=O)NC4CC4)c3)ccc2n1CC1CCOCC1", "note": "[N-Cyclopropyl-1-{[2-(1,1-difluoroethyl)-1-(tetrahydro-2H-pyran-4-ylmethyl)-1H-benzimidazol-5-yl]sulfonyl}-1H-pyrrole-3-carboxamide]", "values": [{"measurement": "EC50", "setting": "Human CB1 receptor [1]", "value": 0.0178, "unit": "µM"}, {"measurement": "solubility", "setting": "Solubility", "value": 6.2, "unit": "µM"}, {"measurement": "Ki", "setting": "Human CB1 receptor [2]", "value": 0.0191, "unit": "µM"}]}]}
